Experimental findings from patent US20260062422A1 (Halda Therapeutics OpCo, Inc., priority 2022, published 2026) are described below.

Test [1] deals with T-Rex 293 cell line SC cells lacking increased expression of progesterone receptor isoform B protein. The experiment in a line: Cellular growth inhibition, T-Rex 293 SC cells without doxycycline, Example 47. The class given is cell-based. The settings on record: T-Rex 293 SC cells not exposed to doxycycline, 72 hours, CellTiter-Glo 2.0; Table 15 (Example 47). Here is the method: The following types of cells were prepared for this experiment: (i) a T-Rex 293 cell line having increased expression of progesterone receptor isoform B protein due to exposure to doxycycline and (ii) a T-Rex 293 cell line lacking increased expression of progesterone receptor isoform B protein. Ability of the test compounds to inhibit proliferation of the foregoing cell types was evaluated according to the procedures set forth below.
The doxycycline-inducible progesterone receptor isoform B protein expressing cell line was established using the following protocol: T-Rex 293 cells were purchased from Invitrogen (Cat #R71007) and transfected using Lipofectamine 2000 with the wild-type progesterone receptor B protein sequence cloned into the pcDNA4/TO vector. Transfected cells were selected using 400 μg/mL Zeocin (Invitrogen Cat #R25001). Following selection, single clones were raised and maintained in Dulbecco's Modified Eagle Medium (DMEM) supplemented with 10% w/w Tetracycline-free fetal bovine serum (FBS) and 250 μg/mL Zeocin. Clones were analyzed for expression of progesterone receptor isoform B protein in the presence and absence of 10 ng/mL doxycycline (Sigma Cat #D9891), and a single doxycycline-inducible clone (hereinafter “SC”) was selected for use in downstream assays.
The SC cells were seeded on poly-D-lysine coated, black clear-bottom 384-well plates at 2500/well, in 25 μL Phenol Red Free Dulbecco's Modified Eagle Medium (DMEM) supplemented with 10% w/w charcoal-dextran treated fetal bovine serum (FBS) and 1% w/w pen-strep, with or without 10 ng/mL doxycycline. Pen-Strep is a commercially available mixture of penicillin G and streptomycin, which is used in mammalian cell culture media to prevent bacterial contamination. Phenol Red Free Dulbecco's Modified Eagle Medium (DMEM) supplemented with 10% w/w charcoal-dextran treated fetal bovine serum (FBS) and 1% w/w pen-strep, with or without 10 ng/mL doxycycline is herein referred to as Treatment Medium. Following seeding of cells in the plates, the plates were spun at 300×g for 30 seconds, then equilibrated to room temperature for 30 minutes, and then deposited in a humidified tissue culture incubator maintained at 37° C. with 5% CO2.
At 24 hours after seeding of the cells, dilutions of test compound were prepared in DMSO and dissolved in Treatment Medium, to achieve a final DMSO concentration of 0.5% w/w, thereby providing the Test Compound Solution. A 25 μL aliquot of the Test Compound Solution was added to cells in the well plates. An equal volume of a solution containing DMSO and Treatment Medium was used as a negative control. Following treatment of cells with Test Compound Solution or said equal volume of a solution containing DMSO and Treatment Medium, the plates were spun at 300×g for 30 seconds, and then left in an incubator for 72 hours.
At the end of the treatment duration, cell viability was quantified with CellTiter-Glo 2.0 reagent (Promega Cat #G9243). For this purpose, plates were equilibrated to room temperature for 30 minutes, and then 25 μL of CellTiter-Glo 2.0 reagent was added to cells in the plate wells. Plates were then agitated on a shaker for two minutes at 500 rpm and subsequently incubated at room temperature for 10 minutes. Following incubation, the plates were spun at 3000×g for 30 seconds, then sealed with an optical adhesive cover, and luminescence readings were measured with an EnVision Plate Reader (Perkin Elmer).
Data was normalized using zero luminescence for baseline. A four-parameter non-linear regression curve fit was applied to dose-response data in GraphPad Prism data analysis software to determine the half-maximal growth inhibitory concentration (GI50) for each test compound.
(Cellular ATP, detected with luciferase, serves as a proxy for viable cell number.)

Test [2] concerns the target T1, progesterone receptor ligand binding domain (LBD) (Homo sapiens, UniProt P06401).
T1 construct: GST-tagged PR LBD, Fluormone tracer, and compound were mixed; purchased Life Technologies A15905 or a15906
T1 sequence (P06401 679-913 limits assumed): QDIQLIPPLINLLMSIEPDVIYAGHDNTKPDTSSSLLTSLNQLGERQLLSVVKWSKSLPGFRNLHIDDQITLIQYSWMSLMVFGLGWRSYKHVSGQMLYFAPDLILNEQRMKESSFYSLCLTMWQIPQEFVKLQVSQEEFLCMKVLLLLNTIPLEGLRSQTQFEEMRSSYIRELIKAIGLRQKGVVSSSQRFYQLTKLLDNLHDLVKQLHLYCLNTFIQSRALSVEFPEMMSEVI
The experiment in a line: FP assay (PolarScreen Progesterone Receptor Competitor Assay) for binding to progesterone receptor LBD. The settings on record: GST-tagged PR LBD, Fluormone tracer, fluorescence polarization, 2 hours; Table 17. Here is the method:
Compounds were tested using the PolarScreen™ Progesterone Receptor Competitor Assay Kit (Life Technologies Cat #A15905 or a15906), as per the manufacturer's instructions. Briefly, GST-tagged PR LBD, Fluormone tracer, and compound were mixed and incubated for 2 hours at room temperature in the dark. Following incubation, the plates were spun at 3000×g for 30 seconds, then sealed with an optical adhesive cover, and fluorescence polarization was measured using appropriate excitation and emission filters with an EnVision Plate Reader (Perkin Elmer). Compound concentration vs. mP value were plotted in Prism (GraphPad). A four-parameter non-linear regression curve fit was applied to dose-response data to determine the half-maximal inhibitory concentration (IC50) for each test compound.

SMILES strings stand for the structures. Bounds are passed on as bounds.

For orientation: GI50 means the concentration that inhibits growth by half. The low end stands for more potent growth inhibition, the high end for less potent growth inhibition. `Cc1sc2c(c1C)C(c1ccc(Cl)cc1)=N[C@@H](CC(=O)NCCOCCOCCOCC1CCN(c3ncc(C(=O)N[C@H]4C(C)(C)[C@H](Oc5ccc(C#N)c(Cl)c5)C4(C)C)cn3)CC1)c1nnc(C)n1-2` [Compound I-17]: the 50% growth inhibitory concentration (GI50) in test [1] is over 3000 nM.

Turning to `Cc1sc2c(c1C)C(c1ccc(Cl)cc1)=N[C@@H](CC(=O)NCCOC1CCN(c3ncc(C(=O)N[C@H]4C(C)(C)[C@H](Oc5ccc(C#N)c(Cl)c5)C4(C)C)cn3)CC1)c1nnc(C)n1-2` [Compound I-6], the GI50 in test [1] was under 500 nM.

As for `Cc1sc2c(c1C)C(c1ccc(Cl)cc1)=N[C@@H](CC(=O)NCCOCCOCCOCCOC1CCN(c3ncc(C(=O)N[C@H]4C(C)(C)[C@H](Oc5ccc(C#N)c(Cl)c5)C4(C)C)cn3)CC1)c1nnc(C)n1-2` [Compound I-11], the concentration for 50% growth inhibition (GI50) in test [1] is under 500 nM.

Consider `Cc1sc2c(c1C)C(c1ccc(Cl)cc1)=N[C@@H](CC(=O)NCCOCCOCCOCCOCCN(C)c1ncc(C(=O)N[C@H]3C(C)(C)[C@H](Oc4ccc(C#N)c(Cl)c4)C3(C)C)cn1)c1nnc(C)n1-2` [Compound I-3, N-((1r,3r)-3-(3-chloro-4-cyanophenoxy)-2,2,4,4-tetramethylcyclobutyl)-2-((1-((S)-4-(4-chlorophenyl)-2,3,9-trimethyl-6H-thieno[3,2-f][1,2,4]triazolo[4,3-a][1,4]diazepin-6-yl)-2-oxo-6,9,12,15-tetraoxa-3-azaheptadecan-17-yl)(methyl)amino)pyrimidine-5-carboxamide], for which the GI50 in test [1] lay in the range of 1500 to 3000 nM.

Regarding `Cc1sc2c(c1C)C(c1ccc(Cl)cc1)=N[C@@H](CC(=O)NCCOCCOCCOCCOCCOC1CCN(c3ncc(C(=O)N[C@H]4C(C)(C)[C@H](Oc5ccc(C#N)c(Cl)c5)C4(C)C)cn3)CC1)c1nnc(C)n1-2` [Compound I-8], the GI50 in test [1] lay in the range of 500 to 1500 nM.

For `Cc1sc2c(c1C)C(c1ccc(Cl)cc1)=N[C@H](CC(=O)NCCOCCOCCOCCOC1CCN(c3ncc(C(=O)N[C@H]4C(C)(C)[C@H](Oc5ccc(C#N)c(Cl)c5)C4(C)C)cn3)CC1)c1nnc(C)n1-2` [Compound I-13], the GI50 in test [1] was in the range of 1500 to 3000 nM.

For orientation: IC50 means the concentration needed to halve the response being measured. The low end stands for higher potency, the high end for lower potency. With `Cc1sc2c(c1C)C(c1ccc(OC3CC4(CCN(c5ncc(C(=O)N[C@H]6C(C)(C)[C@H](Oc7ccc(C#N)c(Cl)c7)C6(C)C)cn5)CC4)C3)cc1)=NC(Cc1ncco1)c1nnc(C)n1-2` (stereo partly shown) [Compound I-166], in test [2], the IC50 fell in the range of 50 to 500 nM.

In test [1], `Cc1sc2c(c1C)C(c1ccc(Cl)cc1)=N[C@H](CC(=O)NCCOCCOCCOCCOCCN(C)c1ncc(C(=O)N[C@H]3C(C)(C)[C@H](Oc4ccc(C#N)c(Cl)c4)C3(C)C)cn1)c1nnc(C)n1-2` [Compound I-19] had a GI50 of 1500 to 3000 nM.

`Cc1sc2c(c1C)C(c1ccc(Cl)cc1)=N[C@H](CC(=O)NCCOCCOCCOCCOCCOC1CCN(c3ncc(C(=O)N[C@H]4C(C)(C)[C@H](Oc5ccc(C#N)c(Cl)c5)C4(C)C)cn3)CC1)c1nnc(C)n1-2` [Compound I-14] registered a GI50 in test [1] of 1500 to 3000 nM.

As to `Cc1sc2c(c1C)C(c1ccc(OC3CC4(CCN(c5ncc(C(=O)N[C@H]6C(C)(C)[C@H](Oc7ccc(C#N)c(Cl)c7)C6(C)C)cn5)CC4)C3)cc1)=N[C@@H](Cc1ncco1)c1nnc(C)n1-2` [Compound I-49, N-[3-(3-chloro-4-cyano-phenoxy)-2,2,4,4-tetramethyl-cyclobutyl]-2-[2-[4-[(9S)-4,5,13-trimethyl-9-(oxazol-2-ylmethyl)-3-thia-1,8,11,12-tetrazatricyclo[8.3.0.02,6]trideca-2(6),4,7,10,12-pentaen-7-yl]phenoxy]-7-azaspiro[3.5]nonan-7-yl]pyrimidine-5-carboxamide], the 50% growth inhibitory concentration (GI50) in test [1] was in the range of 500 to 1500 nM.

The compound `CCNC(=O)C[C@@H]1N=C(c2cccc(OCCOCCOCCOC3CCN(c4ncc(C(=O)N[C@H]5C(C)(C)[C@H](Oc6ccc(C#N)c(Cl)c6)C5(C)C)cn4)CC3)c2)c2c(sc(C)c2C)-n2c(C)nnc21` [Compound I-48, N-((1r,3r)-3-(3-chloro-4-cyanophenoxy)-2,2,4,4-tetramethylcyclobutyl)-2-(4-(2-(2-(2-(3-((S)-6-(2-(ethylamino)-2-oxoethyl)-2,3,9-trimethyl-6H-thieno[3,2-f][1,2,4]triazolo[4,3-a][1,4]diazepin-4-yl)phenoxy)ethoxy)ethoxy)ethoxy)piperidin-1-yl)pyrimidine-5-carboxamide] registered a concentration for 50% growth inhibition (GI50) in test [1] of over 3000 nM.

The compound `CCNC(=O)C[C@@H]1N=C(c2ccc(CCCN(C)c3ncc(C(=O)N[C@H]4C(C)(C)[C@H](Oc5ccc(C#N)c(Cl)c5)C4(C)C)cn3)cc2)c2c(sc(C)c2C)-n2c(C)nnc21` [Compound I-104] came in with an IC50 in test [2] of 50 to 500 nM.

Turning to `Cc1sc2c(c1C)C(c1ccc(Cl)cc1)=N[C@@H](CC(=O)NCCOCCOCCOCCOCCOCCOCCN(C)c1ncc(C(=O)N[C@H]3C(C)(C)[C@H](Oc4ccc(C#N)c(Cl)c4)C3(C)C)cn1)c1nnc(C)n1-2` [Compound I-4], the 50% growth inhibitory concentration (GI50) in test [1] fell in the range of 1500 to 3000 nM.

Regarding `CCNC(=O)C[C@@H]1N=C(c2ccc(N(C)C3CC(OC4CCN(c5ncc(C(=O)N[C@H]6C(C)(C)[C@H](Oc7ccc(C#N)c(Cl)c7)C6(C)C)cn5)CC4)C3)cc2)c2c(sc(C)c2C)-n2c(C)nnc21` (stereo partly shown) [Compound I-130], the IC50 in test [2] was under 50 nM.

`CCNC(=O)C[C@@H]1N=C(c2ccc(N(C3CC3)C3CN(CC4CCN(c5ncc(C(=O)N[C@H]6C(C)(C)[C@H](Oc7ccc(C#N)c(Cl)c7)C6(C)C)cn5)CC4)C3)cc2)c2c(sc(C)c2C)-n2c(C)nnc21` [Compound I-129]: in test [2], the IC50 was under 50 nM.

For the compound `Cc1sc2c(c1C)C(c1ccc(Cl)cc1)=N[C@@H](CC(=O)NCCCCCOC1CCN(c3ncc(C(=O)N[C@H]4C(C)(C)[C@H](Oc5ccc(C#N)c(Cl)c5)C4(C)C)cn3)CC1)c1nnc(C)n1-2` [Compound I-22, N-((1r,3r)-3-(3-chloro-4-cyanophenoxy)-2,2,4,4-tetramethylcyclobutyl)-2-(4-((5-(2-((S)-4-(4-chlorophenyl)-2,3,9-trimethyl-6H-thieno[3,2-A][1,2,4]triazolo[4,3-a][1,4]diazepin-6-yl)acetamido)pentyl)oxy)piperidin-1-yl)pyrimidine-5-carboxamide], the GI50 in test [1] was over 3000 nM.
